Test results: patent US20250235543A1, “MODIFIED PROTEINS AND PROTEIN DEGRADERS” (Cullgen (Shanghai), Inc., priority 2021, published 2025)
Where two headings read alike, the source gives them in different places.

Assays:
DDB1 = target: T1, DDB1 (Homo sapiens, UniProt Q16531, D705G/DEL396-460/DEL463-701/I704S/T703N); experiment: SPR binding assay to immobilized DDB1ΔBPB; conditions: binding affinities to DDB1
T1 construct: His6 (N, cleaved yes); TEV protease cleavage site (N, cleaved yes); made in house; host or cells: SF9 insect cells, Bac-to-Bac baculovirus, pFastBacHTB vector
T1 sequence (Q16531 other isoform, or with tags, fused parts or gaps DEL396-460/DEL463-701/T703N/I704S/D705G): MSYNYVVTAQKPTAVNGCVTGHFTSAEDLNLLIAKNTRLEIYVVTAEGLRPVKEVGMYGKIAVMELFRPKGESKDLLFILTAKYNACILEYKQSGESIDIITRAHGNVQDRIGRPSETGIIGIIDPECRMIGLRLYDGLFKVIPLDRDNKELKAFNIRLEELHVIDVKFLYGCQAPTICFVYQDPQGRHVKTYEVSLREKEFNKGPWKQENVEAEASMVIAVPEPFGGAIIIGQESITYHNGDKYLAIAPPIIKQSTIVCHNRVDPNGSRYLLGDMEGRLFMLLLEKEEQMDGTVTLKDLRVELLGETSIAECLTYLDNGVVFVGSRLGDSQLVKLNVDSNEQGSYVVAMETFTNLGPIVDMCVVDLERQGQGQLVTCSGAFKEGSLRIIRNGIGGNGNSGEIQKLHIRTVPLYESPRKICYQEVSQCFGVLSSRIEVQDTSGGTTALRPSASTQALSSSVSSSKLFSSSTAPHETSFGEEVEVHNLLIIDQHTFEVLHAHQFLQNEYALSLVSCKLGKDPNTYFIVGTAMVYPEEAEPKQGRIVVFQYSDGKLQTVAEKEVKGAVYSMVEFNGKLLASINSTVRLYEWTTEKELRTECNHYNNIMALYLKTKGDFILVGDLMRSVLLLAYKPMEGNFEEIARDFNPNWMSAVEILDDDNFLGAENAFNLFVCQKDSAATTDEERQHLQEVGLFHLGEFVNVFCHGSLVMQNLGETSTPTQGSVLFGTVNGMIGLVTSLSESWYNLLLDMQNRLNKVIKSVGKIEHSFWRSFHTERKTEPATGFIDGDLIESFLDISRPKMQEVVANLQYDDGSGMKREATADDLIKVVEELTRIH
Procedure: The binding affinities of heterobifunctional compounds to DDB1 were determined by SPR assay (FIG. 1A-1B). Purified DDB1ΔBPB proteins were immobilized on a CM5 sensor chip, and a dose range of compound solutions were injected in multi-cycle kinetic format. Data were fit to a steady state model to provide equivalent dissociation constants (Kd).
Human DDB1ΔBPB (UniProt: Q16531. BPB domain, aa 396 to 705, is replaced with a GNGNSG linker) coding sequences were cloned into pFastBacHTB vector and were expressed in SF9 cells using Bac-to-Bac baculovirus expression system (Thermo Fisher Scientific). The expression constructs include an N-terminal His6-tag to facilitate the purification, and a TEV protease cleavage site in between. DDB1ΔBPB proteins were obtained from supernatant of cell lysates and purified through sequential application of Ni affinity column (Ni-NTA column, Bio-Rad) and size-exclusion column (Superdex 200 16/600GL column, GE Healthcare) chromatography. Protein tags were cleaved off by TEV protease, and the resulting untagged proteins were further purified by Ni affinity column. Purified proteins were verified by immunoblotting, analytic SEC, and LC-MS.
SPR studies were performed on a Biacore X100 plus instrument (GE Healthcare). Immobilization of purified DDB1ΔBPB was carried out at 25° C. using a CM5 sensor chip. The surface was pre-equilibrated in HBS-EP running buffer (10 mM HEPES, pH7.4, 150 mM NaCl, 3 mM EDTA, 0.05% P20), before it was activated with EDC/NHS. DDB1ΔBPB proteins were immobilized by amine coupling to a density of 10,000-12,000 resonance units (RUs) on flow cell FC2, whereas flow cell FC1 was used as reference. Both protein immobilized and reference surfaces were deactivated with 1M ethanolamine. All interaction experiments were performed at 25° C. Test compounds were prepared and serially diluted in HBS-EP running buffer containing final 5% DMSO (6-point two-fold serial dilution, 100 μM-3.125 μM final concentration of compounds). Compound solutions were injected individually in multi-cycle kinetic format without regeneration (flow rate 30 μl/min, association time 120 s, dissociation time 120 s). Sensorgrams from reference surfaces and blank injections were subtracted from the raw data (double-referencing) and the data was solvent-corrected prior to analysis. All data were fit to steady state affinity model using Biacore Evaluation Software to provide equivalent dissociation constants (Kd).

CDK4 = target: T2, CDK4 (Homo sapiens, UniProt P11802); experiment: CDK4 percentage degradation in Calu-1 cells (immunoblotting); assay type: cell-based; conditions: for inhibition at 10 µM: read-out: CDK4 Degradation (10 μM); for inhibition at 0.2 µM: read-out: CDK4 Degradation (200 nM)
T2 construct: endogenous in cells; host or cells: Calu-1
T2 sequence (P11802 2-303 limits assumed): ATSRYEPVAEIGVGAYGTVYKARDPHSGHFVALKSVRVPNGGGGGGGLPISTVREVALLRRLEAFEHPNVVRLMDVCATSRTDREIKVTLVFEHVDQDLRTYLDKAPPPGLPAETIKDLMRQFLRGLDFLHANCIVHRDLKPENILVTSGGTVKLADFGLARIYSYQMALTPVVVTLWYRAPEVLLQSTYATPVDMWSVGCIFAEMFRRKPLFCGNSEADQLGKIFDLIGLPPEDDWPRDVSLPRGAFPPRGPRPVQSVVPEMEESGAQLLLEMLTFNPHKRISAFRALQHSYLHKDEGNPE
T2 sequence (P24385 whole entry partner): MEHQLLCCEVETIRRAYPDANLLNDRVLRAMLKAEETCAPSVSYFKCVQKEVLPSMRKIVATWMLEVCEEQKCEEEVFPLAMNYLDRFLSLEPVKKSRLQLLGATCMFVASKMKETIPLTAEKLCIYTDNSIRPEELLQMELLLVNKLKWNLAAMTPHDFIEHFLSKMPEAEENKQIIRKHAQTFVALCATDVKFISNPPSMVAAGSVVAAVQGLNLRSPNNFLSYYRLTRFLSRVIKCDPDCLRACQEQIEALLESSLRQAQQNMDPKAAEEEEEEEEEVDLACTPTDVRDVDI
T2 sequence (Q16531 2-1140 limits assumed, further chain): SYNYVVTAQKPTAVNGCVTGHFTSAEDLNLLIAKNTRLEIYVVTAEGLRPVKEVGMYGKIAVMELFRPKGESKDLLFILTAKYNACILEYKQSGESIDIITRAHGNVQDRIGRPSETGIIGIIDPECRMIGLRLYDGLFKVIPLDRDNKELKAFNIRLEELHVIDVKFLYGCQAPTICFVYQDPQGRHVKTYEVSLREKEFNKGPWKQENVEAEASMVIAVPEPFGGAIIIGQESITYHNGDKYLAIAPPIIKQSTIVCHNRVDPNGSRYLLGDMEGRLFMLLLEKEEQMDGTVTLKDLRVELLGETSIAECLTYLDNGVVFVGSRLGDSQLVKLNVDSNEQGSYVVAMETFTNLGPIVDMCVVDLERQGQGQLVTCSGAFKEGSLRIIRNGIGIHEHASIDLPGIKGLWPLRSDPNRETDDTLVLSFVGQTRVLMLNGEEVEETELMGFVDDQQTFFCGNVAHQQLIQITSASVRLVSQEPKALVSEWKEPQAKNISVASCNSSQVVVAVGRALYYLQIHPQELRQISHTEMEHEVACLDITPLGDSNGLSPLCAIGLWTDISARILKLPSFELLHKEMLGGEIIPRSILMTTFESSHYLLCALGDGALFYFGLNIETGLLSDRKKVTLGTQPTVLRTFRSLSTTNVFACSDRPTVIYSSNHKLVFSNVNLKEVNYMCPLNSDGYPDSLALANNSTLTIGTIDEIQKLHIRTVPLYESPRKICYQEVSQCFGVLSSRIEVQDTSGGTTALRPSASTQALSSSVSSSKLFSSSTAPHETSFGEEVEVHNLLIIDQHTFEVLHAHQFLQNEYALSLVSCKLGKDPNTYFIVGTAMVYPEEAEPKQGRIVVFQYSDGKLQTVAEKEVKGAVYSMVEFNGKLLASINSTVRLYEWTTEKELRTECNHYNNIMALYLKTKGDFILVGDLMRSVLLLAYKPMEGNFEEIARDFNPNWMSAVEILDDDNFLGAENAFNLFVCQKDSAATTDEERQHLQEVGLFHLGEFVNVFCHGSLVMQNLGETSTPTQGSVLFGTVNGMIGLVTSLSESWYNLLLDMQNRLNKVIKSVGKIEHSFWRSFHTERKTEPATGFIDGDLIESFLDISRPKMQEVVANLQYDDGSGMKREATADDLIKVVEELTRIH
Outline: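 CDK4 degradation was measured by immunoblotting. Cells were washed in cold PBS and lysed in RIPA buffer with inhibitors for 30 min at 4° C., then spun at 13,000 rpm to clear. After BCA protein determination, lysates were heated at 99° C. for 5 min in Laemmli buffer, resolved on SDS-PAGE, imaged on a ChemiDoc MP with ECL substrate, and band intensities quantified.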

cyclin D1 = experiment: Cyclin D1 percentage degradation in Calu-1 cells (immunoblotting); assay type: cell-based; conditions: 16 hours
Outline: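 Cyclin D1 degradation was assessed by western blot. Clarified lysates, obtained by RIPA lysis with inhibitors and centrifugation at 13,000 rpm, were normalized by BCA protein assay and separated by SDS-PAGE. Bands were detected with Western ECL Substrate on a Bio-Rad ChemiDoc MP Imaging system and quantified in Image Lab software to derive percentage degradation.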

Compound: COC(=O)c1nc(NC(=O)c2ccc(NCCOCCOCCOCCOCCOCCN)cc2C)sc1C [BL1-38, methyl 2-(4-((17-amino-3,6,9,12,15-pentaoxaheptadecyl)amino)-2-methylbenzamido)-5-methylthiazole-4-carboxylate]
- Kd (DDB1): < 20 µM

Compound: CNc1ccc(C(=O)Nc2nc(C)c(C)s2)c(NC(C)=O)c1 [B1-67, 2-acetamido-N-(4,5-dimethylthiazol-2-yl)-4-(methylamino)benzamide]
- Kd (DDB1): 20 to 50 µM

Compound: CC(=O)NCCCCCCCCC(=O)Nc1ccccc1C(=O)Nc1nc(C)c(C)s1 [B1-79, 2-(9-acetamidononanamido)-N-(4,5-dimethylthiazol-2-yl)benzamide]
- Kd (DDB1): 20 to 50 µM

Compound: COc1ccc(NC(=O)c2ccccc2NC(C)=O)nc1 [B1-83, 2-acetamido-N-(5-methoxypyridin-2-yl)benzamide]
- Kd (DDB1): 20 to 50 µM

Compound: Cc1ccccc1C(=O)Nc1cc(C)n(C)n1 [B1-8, N-(1,5-dimethyl-1H-pyrazol-3-yl)-2-methylbenzamide]
- Kd (DDB1): > 100 µM

Compound: CC(=O)Nc1ccccc1C(=O)Nc1nc(C)c(C)s1 [B1-6, 2-acetamido-N-(4,5-dimethylthiazol-2-yl)benzamide]
- Kd (DDB1): 20 to 50 µM

Compound: CNc1ccc(C(=O)Nc2ccc(C)cn2)c(NC(C)=O)c1 [B1-88, 2-acetamido-4-(methylamino)-N-(5-methylpyridin-2-yl)benzamide]
- Kd (DDB1): < 20 µM

Compound: Cc1cc(NCCOCCOCCOCCOCCOCCN)ccc1C(=O)Nc1nc(C)c(C)s1 [BL1-36, 4-((17-amino-3,6,9,12,15-pentaoxaheptadecyl)amino)-N-(4,5-dimethylthiazol-2-yl)-2-methylbenzamide]
- Kd (DDB1): < 20 µM

Compound: COc1ccc(NC(=O)c2ccccc2NC(C)=O)nn1 [B1-53, 2-acetamido-N-(6-methoxypyridazin-3-yl)benzamide]
- Kd (DDB1): 20 to 50 µM

Compound: Cc1cnc(NC(=O)c2ccc(NCCOCCOCCOCCOCCOCCN)cc2C)s1 [BL1-24, 4-((17-amino-3,6,9,12,15-pentaoxaheptadecyl)amino)-2-methyl-N-(5-methylthiazol-2-yl)benzamide]
- Kd (DDB1): < 20 µM

Compound: CCc1nc(NC(=O)c2ccccc2C)sc1C [B1-5, N-(4-ethyl-5-methylthiazol-2-yl)-2-methylbenzamide]
- Kd (DDB1): 20 to 50 µM

Compound: Cc1ccccc1C(=O)Nc1nc(C2CC2)c(C)s1 [B1-7, N-(4-cyclopropyl-5-methylthiazol-2-yl)-2-methylbenzamide]
- Kd (DDB1): > 100 µM

Compound: CC(=O)Nc1ccccc1C(=O)Nc1ccc(C)c(C2CC2)n1 [B1-73, 2-acetamido-N-(6-cyclopropyl-5-methylpyridin-2-yl)benzamide]
- Kd (DDB1): > 100 µM

Compound: COC(=O)c1nc(NC(=O)c2ccccc2C)sc1C [B1-4, methyl 5-methyl-2-(2-methylbenzamido)thiazole-4-carboxylate]
- Kd (DDB1): < 20 µM

Compound: Cc1ccccc1C(=O)Nc1nc(C(C)C)c(C)s1 [B1-3, N-(4-isopropyl-5-methylthiazol-2-yl)-2-methylbenzamide]
- Kd (DDB1): 50 to 100 µM

Compound: CC(=O)Nc1ccccc1C(=O)Nc1ccc(N(C)C)nn1 [B1-71, 2-acetamido-N-(6-(dimethylamino)pyridazin-3-yl)benzamide]
- Kd (DDB1): 20 to 50 µM

Compound: Cc1ccccc1C(=O)Nc1nc(C)c(C)s1 [B1-1, N-(4,5-dimethylthiazol-2-yl)-2-methylbenzamide]
- Kd (DDB1): > 100 µM

Compound: CC(=O)NCCOCCOCCNc1cccc(C(=O)Nc2nc(C)c(C)s2)c1C [B1-80, 3-((2-(2-(2-acetamidoethoxy)ethoxy)ethyl)amino)-N-(4,5-dimethylthiazol-2-yl)-2-methylbenzamide]
- Kd (DDB1): < 20 µM

Compound: Cc1ccccc1C(=O)Nc1nc(Br)c(C)s1 [B1-2, N-(4-bromo-5-methylthiazol-2-yl)-2-methylbenzamide]
- Kd (DDB1): > 100 µM

Compound: CC(=O)Nc1ccccc1C(=O)Nc1ccc(C)cn1 [B1-31, 2-acetamido-N-(5-methylpyridin-2-yl)benzamide]
- Kd (DDB1): > 100 µM

Compound: Cc1nc(NC(=O)c2ccccc2NC(=O)CCOCCNC(=O)CN2CCN(c3ccc(Nc4ncc5cc6n(c5n4)C4(CCCCC4)CNC6=O)nc3)CC2)sc1C [CPD-322, N-(4,5-Dimethylthiazol-2-yl)-2-(3-(2-(2-(4-(6-((6′-oxo-7′,8′-dihydro-6′H-spiro[cyclohexane-1,9′-pyrazino[1′,2′:1,5]pyrrolo[2,3-d]pyrimidin]-2′-yl)amino)pyridin-3-yl)piperazin-1-yl)acetamido)ethoxy)propanamido)benzamide]
- inhibition at 10 µM (CDK4; Calu-1 cells, 16 hours): 50 to 80%
- CyclinD1 Degradation (10 μM) (cyclin D1): A (protein percentage degradation >= 80%)

Compound: CC(=O)c1c(C)c2cnc(Nc3ccc(N4CCN(C(=O)CCOCCOCCNc5ccc(C)c(C(=O)Nc6nc(C)c(C)s6)c5)CC4)cn3)nc2n(C2CCCC2)c1=O [CPD-130, 5-((2-(2-(3-(4-(6-((6-Acetyl-8-cyclopentyl-5-methyl-7-oxo-7,8-dihydropyrido[2,3-d]pyrimidin-2-yl)amino)pyridin-3-yl)piperazin-1-yl)-3-oxopropoxy)ethoxy)ethyl)amino)-N-(4,5-dimethylthiazol-2-yl)-2-methylbenzamide]
- inhibition at 0.2 µM (CDK4; Calu-1, 16 h): < 30%
- CyclinD1 Degradation (200 nM) (cyclin D1): D (protein percentage degradation <30%)

Compound: CC(=O)c1c(C)c2cnc(Nc3ccc(N4CCN(CC(=O)NCCNc5ccc(C)c(C(=O)Nc6nc(C)c(C)s6)c5)CC4)cn3)nc2n(C2CCCC2)c1=O [CPD-093, 5-((2-(2-(4-(6-((6-Acetyl-8-cyclopentyl-5-methyl-7-oxo-7,8-dihydropyrido[2,3-d]pyrimidin-2-yl)amino)pyridin-3-yl)piperazin-1-yl)acetamido)ethyl)amino)-N-(4,5-dimethylthiazol-2-yl)-2-methylbenzamide]
- inhibition at 0.2 µM (CDK4; Calu-1 cells, 200 nM, 16 hours): < 30%
- CyclinD1 Degradation (200 nM) (cyclin D1): D (protein percentage degradation <30%)

Compound: CC(=O)c1c(C)c2cnc(Nc3ccc(N4CCN(CC(=O)NCCCCCCCCNc5ccc(C)c(C(=O)Nc6nc(C)c(C)s6)c5)CC4)cn3)nc2n(C2CCCC2)c1=O [CPD-095, 5-((8-(2-(4-(6-((6-Acetyl-8-cyclopentyl-5-methyl-7-oxo-7,8-dihydropyrido[2,3-d]pyrimidin-2-yl)amino)pyridin-3-yl)piperazin-1-yl)acetamido)octyl)amino)-N-(4,5-dimethylthiazol-2-yl)-2-methylbenzamide]
- inhibition at 0.2 µM (CDK4; Calu-1 cells, 200 nM, 16 hours): < 30%
- CyclinD1 Degradation (200 nM) (cyclin D1): D (protein percentage degradation <30%)

Compound: Cc1nc(NC(=O)c2ccccc2NC(=O)CCOCCOCCOCCOCCNC(=O)CN2CCN(c3ccc(Nc4ncc(F)c(-c5cc(F)c6nc(C)n(C(C)C)c6c5)n4)nc3)CC2)sc1C [CPD-311, N-(4,5-Dimethylthiazol-2-yl)-2-(1-(4-(6-((5-fluoro-4-(4-fluoro-1-isopropyl-2-methyl-1H-benzo[d]imidazol-6-yl)pyrimidin-2-yl)amino)pyridin-3-yl)piperazin-1-yl)-2-oxo-6,9,12,15-tetraoxa-3-azaoctadecan-18-amido)benzamide]
- inhibition at 10 µM (CDK4; Calu-1 cells, 16 hours): 30 to 50%
- CyclinD1 Degradation (10 μM) (cyclin D1): A (protein percentage degradation >= 80%)

Compound: CC(=O)c1c(C)c2cnc(Nc3ccc(N4CCN(C(=O)CCOCCOCCOCCOCCOCCOCCNc5cccc(C(=O)Nc6nc(C)c(C)s6)c5C)CC4)cn3)nc2n(C2CCCC2)c1=O [CPD-133, 3-((21-(4-(6-((6-Acetyl-8-cyclopentyl-5-methyl-7-oxo-7,8-dihydropyrido[2,3-d]pyrimidin-2-yl)amino)pyridin-3-yl)piperazin-1-yl)-21-oxo-3,6,9,12,15,18-hexaoxahenicosyl)amino)-N-(4,5-dimethylthiazol-2-yl)-2-methylbenzamide]
- inhibition at 0.2 µM (CDK4; Calu-1, 16 h): 50 to 80%
- CyclinD1 Degradation (200 nM) (cyclin D1): A (protein percentage degradation >=80%)
